This is an account of results in PMC5681435, “Differential Regulation of G1 CDK Complexes by the Hsp90-Cdc37 Chaperone System” (Cell Reports, 2017).

One test relates to CDK6-cyclin D. The arrangement: method as in Sherr et al., 2016. Conditions: ref Sherr et al., 2016; read-out: IC50 against CDK6-cyclin D; cited from earlier work.
The subject of the next test is CDK4-cyclin D. The arrangement: method as in Sherr et al., 2016. The conditions noted are these: ref Sherr et al., 2016; read-out: IC50 against CDK4-cyclin D; cited from earlier work.
The next test concerns the target T1, CDK4-Cdc37 complex (Homo sapiens, UniProt P11802).
T1 construct: Full length human CDK4 and CDK6 with an N-terminal; made in house; host or cells: GSTCDK4: Sf9 insect cells; Cdc37: E. coli
It is filed as binding. Conditions: HTRF competition, 8 nM GSTCDK4, 150 nM C-Avi Cdc37.

For another test, the target named is T2, CDK4 (Homo sapiens, UniProt P11802).
T2 construct: Full length human CDK4 and CDK6 with an N-terminal; made in house; host or cells: Sf9 insect cells (baculovirus, MultiBac)
Kind of test: HTRF direct binding to GSTCDK4. Conditions: GSTCDK4 10 nM, read-out: Dissociation constant for binding to CDK4. As to the method: (§1) exchange chromatography (HiTrap Q, GE Healthcare). Protein concentrations were determined by NanoDrop2000 UV-Vis Spectrophotometer (Thermo Scientific) or using a Shimadzu UV1800 spectrophotometer. A representative SDS-polyacrylamide gel stained with silver is shown in Figure S4 to illustrate the purity of the GSTCDK4 and GSTCDK6 […]
(§2) Avi-tagged proteins (Cdc37, p16INK4a, p16INK4a mutants, Kcyclin and Vcyclin) were biotinylated to provide an affinity tag for the streptavidin-tagged XL665 dye. A substantial amount of biotinylated protein was purified from the recombinant E. coli cells as a result of endogenous BirA activity. Proteins were further modified by incubating 40 µM of the Avi-tagged protein with 10 µg BirA in biotinylation buffer (50 mM Bicine pH 8.3, 10 mM ATP, 10 mM MgOAc, 50 µM d-biotin) at 30°C for 60 minutes. […] The extent of protein biotinylation was monitored by pull downs using High Capacity NeutrAvidin® Agarose Resin (Thermo […]
(§3) To assemble the various complexes, 15 µg of Cdc37 was mixed with a molar equivalent of CDK6, and incubated for 1hour at 4 °C. […] The reactions were stopped by addition of 2 x LDS buffer and analysed by SDS-PAGE and subsequent western blotting using an anti-phosphorylated S780 antibody […]
(§4) Homogenous time-resolved fluorescence (HTRF) […]

The target in test [1] is B-Raf^V600E kinase domain. The arrangement: method as in Polier et al., 2013. Conditions: isothermal titration calorimetry; ref Polier et al., 2013; read-out: Affinity of Cdc37-B-Raf^V600E kinase domain interaction; cited from earlier work.
The next test has as its target T3, CDK2 (Homo sapiens, UniProt P24941).
T3 construct: made in house; host or cells: E. coli BL21STAR(DE3)
The experiment in a line: HTRF direct binding to GSTCDK2. Conditions: GSTCDK2 25 nM. The method, then: as §1, §2, §3, §4

A further test deals with T4, CDK6 (Homo sapiens, UniProt Q00534).
T4 construct: Full length human CDK4 and CDK6 with an N-terminal; made in house; host or cells: Sf9 insect cells (baculovirus, MultiBac)
Kind of test: HTRF direct binding to GSTCDK6. The conditions noted are these: GSTCDK6 10 nM, read-out: Dissociation constant for binding to CDK6. The method, then:
as §1, §2, §3, §4

Test [2] has as its target T5, CDK4-cyclin D1/D3 complexes (Homo sapiens, UniProt P11802).
T5 construct: Full length human CDK4 and CDK6 with an N-terminal; made in house; host or cells: Sf9 insect cells (co-expression)
The experiment in a line: HTRF association of Avi-tagged Cdc37 with GSTCDK4-cyclin D complexes with or without p21M/p27M. The test is classed as binding. Conditions: ternary complex, Figure 4E. The method, then:
To find out whether the CIP/KIP CKIs can cooperate with cyclin D isoforms to generate a stable ternary CDK4 complex that is resistant to displacement by Cdc37, we next purified GSTCDK4-cyclin D1 and D3 and GSTCDK6-cyclin D1 and D3 complexes assembled in insect cells, incubated them with excess p21M or p27M, and isolated the complexes by size-exclusion chromatography. We then used the HTRF assay to measure the association of Avi-tagged Cdc37 with GSTCDK4 and GSTCDK6, which were presented unpartnered, in a binary complex with cyclin D1 or cyclin D3, or in a ternary complex with cyclin D1 or D3 and p21M, or p27M. As shown previously, Cdc37 binds to monomeric CDK4 (Figures 4C and 4E, blue lines) and effectively displaces cyclin D1 or cyclin D3 (Figures 4C and 4E, red lines). […]
as §1
Avi-tagged proteins (Cdc37, p16INK4a, p16INK4a mutants, Kcyclin and Vcyclin) were biotinylated to provide an affinity tag for the streptavidin-tagged XL665 dye. […] The extent of protein biotinylation was monitored by pull downs using High Capacity NeutrAvidin® Agarose Resin (Thermo […]

“Also recorded” adds a separate entry of the source.

T1 sequence (P11802 whole entry, one chain of several): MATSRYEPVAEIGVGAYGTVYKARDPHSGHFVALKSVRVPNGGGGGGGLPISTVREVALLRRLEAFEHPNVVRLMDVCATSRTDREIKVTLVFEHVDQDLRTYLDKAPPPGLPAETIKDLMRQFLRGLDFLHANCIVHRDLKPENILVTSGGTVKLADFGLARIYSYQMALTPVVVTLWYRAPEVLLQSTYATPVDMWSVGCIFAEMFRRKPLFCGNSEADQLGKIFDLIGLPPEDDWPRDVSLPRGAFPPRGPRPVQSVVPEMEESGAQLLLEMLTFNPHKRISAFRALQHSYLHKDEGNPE
T2 sequence (P11802 whole entry): as the sequence (P11802 whole entry, one chain of several) above
T5 sequence (P11802 whole entry): as the sequence (P11802 whole entry, one chain of several) above
T5 sequence (P30281 whole entry partner): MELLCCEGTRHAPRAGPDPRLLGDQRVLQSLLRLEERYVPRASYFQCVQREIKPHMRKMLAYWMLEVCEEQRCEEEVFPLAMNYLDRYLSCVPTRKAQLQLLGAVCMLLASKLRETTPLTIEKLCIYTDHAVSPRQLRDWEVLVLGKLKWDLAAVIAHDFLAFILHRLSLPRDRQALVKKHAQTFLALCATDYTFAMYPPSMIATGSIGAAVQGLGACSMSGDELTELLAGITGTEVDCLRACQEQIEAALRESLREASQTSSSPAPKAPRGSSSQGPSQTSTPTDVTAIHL
T4 sequence (Q00534 whole entry): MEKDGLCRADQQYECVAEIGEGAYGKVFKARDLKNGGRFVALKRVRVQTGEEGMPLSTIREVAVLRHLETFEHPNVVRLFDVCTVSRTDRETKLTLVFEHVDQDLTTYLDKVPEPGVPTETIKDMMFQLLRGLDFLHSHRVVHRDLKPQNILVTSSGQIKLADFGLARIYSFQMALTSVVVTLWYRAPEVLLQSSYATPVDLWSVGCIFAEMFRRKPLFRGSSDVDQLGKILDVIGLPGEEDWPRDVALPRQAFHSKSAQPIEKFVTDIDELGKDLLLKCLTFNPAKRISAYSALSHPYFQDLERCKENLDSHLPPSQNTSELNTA

Turning to `CN(C)C(=O)c1cc2cnc(Nc3ccc(N4CCNCC4)cn3)nc2n1C1CCCC1` [LEE011, ribociclib], the IC50 was 0.039 µM in the test with CDK6-cyclin D and 0.01 µM in the test on CDK4-cyclin D.
For `CCN1CCN(Cc2ccc(Nc3ncc(F)c(-c4cc(F)c5nc(C)n(C(C)C)c5c4)n3)nc2)CC1` [LY2835219, abemaciclib], the IC50 is 0.005 µM with CDK6-cyclin D and 0.002 µM in the test with CDK4-cyclin D. The “Displacement of Cdc37 from CDK4-Cdc37 complex (in words)” value (“Displacement of Cdc37” below) on CDK4-Cdc37 complex was “unable to derive reproducible inhibition curves”.
Take `CC(=O)c1c(C)c2cnc(Nc3ccc(N4CCNCC4)cn3)nc2n(C2CCCC2)c1=O` [PD0332991, palbociclib]: the half-inhibitory concentration (IC50) in the test with CDK6-cyclin D was 0.015 µM; in the test with CDK4-cyclin D it was 0.011 µM.
Take “Cdc37: human Hsp90 adaptor co-chaperone Cdc37, recombinant, Avi- or FLAG-tagged”: the Kd is 0.092 ± 0.029 µM in the test with CDK4, roughly 0.2 µM in test [1] and 0.46 ± 0.23 µM in the test with CDK6. Also, the “Binding to CDK2” value with CDK2 is recorded as “not bind to CDK2; also recorded: no interaction could be detected”.
Regarding p21M: p21CIP1 fragment residues 1–87, in the test with CDK4-Cdc37 complex, the “Displacement of Cdc37” value is recorded as “can displace”. In addition, the “Effect of addition to CDK4-cyclin D3 on Cdc37 binding” value in test [2] is given as “prevent Cdc37 from binding”.
For p21S: p21CIP1 fragment residues 9–87, the “Displacement of Cdc37” value in the test with CDK4-Cdc37 complex is reported as “can displace”.
